# Laboratory results as given in patent publication US9023797B2 (priority 2012, dated 2015).
# Tested on: Virus
# Test: Design of Experiment study of viral inactivation process variables
# Assay type: cell-based
# Conditions: 30 mM caprylate, albumin 5%, pH 4.4, 40° C., 120 min
structure (smiles),measurement,value
"CCCCCCCC(=O)O [caprylate, octanoic acid]",predicted LRV (equivalent of 100%),2.16
same,predicted LRV on the 0 to 100 scale (maximized),100%
